Assay: in vitro
Conditions: human, hela cells, % viability

Structure (SMILES)	viability at 28.5 h, 10 µM	viability at 28.5 h, 10 µM (bulk resorufin, single well)
O=C(CC1CCN(Cc2ccccn2)CC1)NCC1(c2ccccc2)CCCC1 [CBK285959]	87.4%	
CN(c1cc(F)ccc1[N+](=O)[O-])S(C)(=O)=O [CBK001365]	82.1%	
Cc1c(CNC2(c3ccccc3F)CCCC2)c(=O)n(C)c(=O)n1C [CBK282986]	85.1%	
COc1ccc(-c2nc(-c3ccncc3)ncc2C(=O)NC2CCCCC2)cc1 [CBK291111]	95.4%	
COc1ccc(CCN2C(=O)CC(Nc3ccc(N4CCOCC4)cc3)C2=O)cc1OC (stereo not shown) [CBK266322]	97.7%	
COc1ccc(S(=O)(=O)N2CCN(C(=S)Nc3ccc(S(N)(=O)=O)cc3)CC2)cc1 [CBK266898]	92.6%	
O=C1NC(=S)N(Cc2ccccc2)C(=O)C1(CCc1ccncc1)CCc1ccncc1 [CBK269137]		106%
CN(C)CCN(Cc1ccccc1)Cc1ccc([N+](=O)[O-])cc1 [CBK261929]	87.8%	
CN(C)CCNC(=O)NC(c1ccccc1)c1ccccc1 [CBK263505C]	104%	
CS(=O)(=O)Nc1nccnc1OC1CCN(CCc2c[nH]c3ccccc23)CC1 [CBK084282]	119%	
O=C(Nc1ccc(N2CCNCC2)nc1)C1CCC1 [CBK004743T]	86.2%	
CCN(Cc1cccnc1)C(CC1CCCCC1)c1ccccc1 (stereo not shown) [CBK061673]	98%	
COc1cc(C(=O)Nc2cc(-c3nc4ncccc4o3)ccc2C)cc(OC)c1OC [CBK101133]	97%	
O=C(OCCCc1cccnc1)c1cc(=O)[nH]c2ccccc12 [CBK295631]	99.7%	
O=C(Nc1cncc(OC2CCNCC2)n1)c1cccnc1 [CBK036375T]	92.1%	
CCCc1csc(C2CN3CCCC3CO2)n1 (stereo not shown) [CBK304799]	88.3%	
C=CCn1c(SCC(=O)Nc2ccc(C(=O)OC)cc2)nnc1-c1ccc(Br)cc1 [CBK101797]	92.8%	

Structure (SMILES)	viability at 28.5 h, 10 µM	viability at 28.5 h, 10 µM (bulk resorufin, single well)
Cc1noc2nc(-c3ccco3)cc(C(=O)NCc3nc4ccccc4[nH]3)c12 [CBK295608]	93.5%	
Cc1ccc(S(=O)(=O)Nc2ccc(Nc3nc(-c4ccccc4)cn4ccnc34)cc2)cc1 [CBK037303]	104%	
CSc1ccc(CN2CCN(S(=O)(=O)Cc3ccccc3)CC2)cc1 [CBK264301G]	94.2%	
CCc1nc2ccc(C(=O)Nc3ccc4c(c3)CCN4C(C)=O)cn2c1N(C=O)CC [CBK145944]	102%	
CCOC(=O)NC(=O)C(C#N)/C=N/NC(=O)CCCNc1ncc(C(F)(F)F)cc1Cl (stereo not shown) [CBK008354]	101%	
O=C(NC1CC1)[C@H]1C=CCN1C(=O)c1cccs1 [CBK284324]	94.7%	
O=C(Cn1cccc(C(=O)NCc2ccccc2)c1=O)NC1(c2ccccc2)CCCC1 [CBK286058]	89.1%	
N#Cc1ccc(CN2CCN(S(=O)(=O)c3ccc(-n4cnc(Cl)c4Cl)cc3)CC2)cc1 [CBK062972]	104%	
O=S(=O)(Nc1nccnc1-c1ccc2c(c1)OCO2)c1cccc(Cl)c1 [CBK050951]	92.4%	
Clc1ccccc1-c1nsc(Nc2ccccc2)n1 [CBK016152]	96.2%	
O=C(c1ccccc1)N1C[C@H](c2ccsc2)[C@H]2CN(Cc3cccs3)CC[C@H]21 [CBK285623]	95.8%	
Cc1cc(C(=O)N2CCCCCC2c2nn(C)cc2Cl)on1 (stereo not shown) [CBK285121]	107%	
OCc1ccc(CN2Cc3nc[nH]c3C[C@H]2c2nc(Cc3ccccc3)no2)o1 [CBK288955]	93.8%	
O=S(=O)(N1CCCCCC1)N1CCN(S(=O)(=O)N2CCOCC2)CC1 [CBK269152]	100%	
O=C1NC/C=C/CC2(CCN(Cc3c[nH]c4ccccc34)CC2)C(=O)NCCOc2ccccc21 [CBK292085]	100%	
COc1cccc(NC(=O)N2CCN3C(=O)[C@H](CC4CCCCC4)NC(=O)[C@H]3C2)c1 [CBK289615]	117%	
O=C(CSc1nnc(-c2ccc(Cl)cc2)n1-c1ccccc1)N/N=C/c1ccco1 [CBK262996]	91.6%	

From article PMC12040169 (PLOS Biology, 2025)
